Measurements from US20260265248A1, “NOVEL PD-L1 INHIBITORS” (AFFIRMA BIOTECH S. L., priority 2023, published 2026).

The compounds below were run against T1, PD-1/PD-L1 (Homo sapiens, UniProt Q9NZQ7) (assay: PD1-PDL1 HTRF assay). Conditions: PD-1/PD-L1 homogenous time-resolved fluorescence (HTRF) binding assay; Tag1-PDL1 5 nM, Tag2-PD1 50 nM.
T1 construct: purchased CisBio
Outline: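 Compound (8 concentrations) was preincubated 15 min at room temperature with Tag1-PD-L1 and Tag2-PD-1, added as 5 nM and 50 nM solutions. Eu-labelled anti-Tag1 and XL665-labelled anti-Tag2 were then added for 1 h, and the 665/620 nm ratio (×10^4; excitation 320 nm) was fitted to the Hill equation for IC50.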

T1 sequence (Q9NZQ7 19-238 limits assumed): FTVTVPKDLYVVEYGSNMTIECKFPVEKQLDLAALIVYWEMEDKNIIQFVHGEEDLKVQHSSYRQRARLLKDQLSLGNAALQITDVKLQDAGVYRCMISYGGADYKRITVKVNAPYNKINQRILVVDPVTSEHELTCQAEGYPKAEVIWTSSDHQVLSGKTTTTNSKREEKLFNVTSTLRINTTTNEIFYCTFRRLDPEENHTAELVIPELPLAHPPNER

`Cc1c(-c2ccc3c(c2)OCCO3)cccc1-c1ccn2c(-c3ccc(CN4CCCCC4C(=O)O)cc3)cnc2c1` (stereo not shown) [Example 36, 1-(4-(7-(3-(2,3-dihydrobenzo[b][1,4]dioxin-6-yl)-2-methylphenyl)imidazo[1,2-a]pyridin-3-yl)benzyl)piperidine-2-carboxylic acid] and `Cc1c(-c2ccc3c(c2)OCCO3)cccc1-c1ccn2c(-c3ccc(CN4CC[C@@H]4C(=O)O)cc3)cnc2c1` [Example 29, (R)-1-(4-(7-(3-(2,3-dihydrobenzo[b][1,4]dioxin-6-yl)-2-methylphenyl)imidazo[1,2-a]pyridin-3-yl)benzyl)azetidine-2-carboxylic acid] fall in the same range of IC50: 100 to 1000 nM for the first, 100 to 1000 nM for the second.

`Cc1c(-c2ccccc2)cccc1-c1ccn2c(-c3ccc(CN4CCOCC4C(=O)O)cc3)cnc2c1` (stereo not shown) [Example 6, 4-(4-(7-(2-methyl-[1,1′-biphenyl]-3-yl)imidazo[1,2-a]pyridin-3-yl)benzyl)morpholine-3-carboxylic acid] and `Cc1c(-c2ccccc2)cccc1-c1ccn2c(-c3ccc(CN4CCCCC4C(=O)O)cc3)cnc2c1` (racemic) [Example 1, 1-(4-(7-(2-methyl-[1,1′-biphenyl]-3-yl)imidazo[1,2-a]pyridin-3-yl)benzyl) piperidine-2-carboxylic acid] fall in the same range of IC50: 100 to 1000 nM for the first, 100 to 1000 nM for the second.

`Cc1c(-c2ccc(CNCCO)cc2)cccc1-c1cccc(-c2ccn3c(CN4CCC[C@@H]4C(=O)O)nnc3c2)c1C` [Example 88, ((7-(4″-(((2-hydroxyethyl)amino)methyl)-2,2′-dimethyl-[1,1′:3′,1″-terphenyl]-3-yl)-[1,2,4]triazolo[4,3-α]pyridin-3-yl)methyl)-D-proline] and `Cc1c(-c2ccc(CNCCO)cc2)cccc1-c1cccc(-c2ccn3c(CNCCO)nnc3c2)c1C` [Example 91, 2-(((7-(4″-(((2-hydroxyethyl)amino)methyl)-2,2′-dimethyl-[1,1′:3′,1″-terphenyl]-3-yl)-[1,2,4]triazolo[4,3-α]pyridin-3-yl)methyl)amino)ethan-1-ol] fall in the same range of IC50: 10 to 100 nM for the first, 10 to 100 nM for the second.

`OCCNCc1ccc(-c2cccc(-c3cccc(-c4ccn5c(CNCCO)nnc5c4)c3Cl)c2Cl)cc1` [Example 96, 2-(((2′,2″-dichloro-3″-(3-(((2-hydroxyethyl)amino)methyl)-[1,2,4]triazolo[4,3-a]pyridin-7-yl)-[1,1′:3′,1″-terphenyl]-4-yl)methyl)amino)ethan-1-ol] and `O=C1CC[C@@H](CNCc2ccc(-c3cccc(-c4cccc(-c5ccn6nc(CNC[C@@H]7CCC(=O)N7)nc6c5)c4Cl)c3Cl)cc2)N1` [Example 105, (S)-5-((((21,2″-dichloro-3″-(2-(((((S)-5-oxopyrrolidin-2-yl)methyl)amino)methyl)-[1,2,4]triazolo[1,5-α]pyridin-7-yl)-[1,1′:3′,1″-terphenyl]-4-yl)methyl)amino)methyl)pyrrolidin-2-one] cannot be ordered by IC50: at most 10 nM for the first, at most 10 nM for the second.

First: Cc1c(-c2ccc(CNCCO)cc2)cccc1-c1cccc(-c2ccn3c(-c4ccc(CN5CC[C@@H](C(=O)O)C5)cc4)nnc3c2)c1C [Example 65, (R)-1-(4-(7-(4″-(((2-hydroxyethyl)amino)methyl)-2,2′-dimethyl-[1,1′:3′,1″-terphenyl]-3-yl)-[1,2,4]triazolo[4,3-α]pyridin-3-yl)benzyl)pyrrolidine-3-carboxylic acid]
Second: COc1cc(-c2cnc3cc(-c4cccc(-c5ccccc5)c4C)ccn23)cc(OC)c1CN1CCCC1C(=O)O (stereo not shown) [Example 20, 1-(2,6-dimethoxy-4-(7-(2-methyl-[1,1′-biphenyl]-3-yl)imidazo[1,2-ai]pyridin-3-yl)benzyl)piperidine-2-carboxylic acid]
The IC50 of the first is lower: 10 to 100 nM for the first, 100 to 1000 nM for the second.
